In BigSolDB 2.1:

O=C1C=CC(=O)N1c1cc(F)c(Br)c(F)c1
Details	solubility (mole fraction)
in 1,4-dioxane, 287.65 K	0.0122
in 1,4-dioxane, 290.65 K	0.0133
in 1,4-dioxane, 293.85 K	0.0146
in 1,4-dioxane, 297.15 K	0.016
in 1,4-dioxane, 302.05 K	0.0183
in 1,4-dioxane, 306.25 K	0.0206
in 1,4-dioxane, 310.05 K	0.023
in 1,4-dioxane, 317.15 K	0.0281
in 1,4-dioxane, 321.65 K	0.0318
in 1,4-dioxane, 324.45 K	0.0342
in 1,4-dioxane, 330.85 K	0.0408
in 1,4-dioxane, 335.35 K	0.0464
in 1,4-dioxane, 339.15 K	0.0513
in 1,4-dioxane, 342.25 K	0.0558
in 1,4-dioxane, 347.25 K	0.0639
in 1,4-dioxane, 353.65 K	0.0759
in 2-butanone, 289.75 K	0.0086
in 2-butanone, 299.25 K	0.0112
in 2-butanone, 303.5 K	0.0128
in 2-butanone, 308.75 K	0.0149
in 2-butanone, 313 K	0.017
in 2-butanone, 316.25 K	0.0187
in 2-butanone, 318.6 K	0.0202
in 2-butanone, 321.75 K	0.022
in 2-butanone, 324.25 K	0.0237
in 2-butanone, 327.05 K	0.0257
in 2-butanone, 331.95 K	0.0296
in 2-butanone, 335.25 K	0.0326
in 2-butanone, 338.85 K	0.036
in 2-butanone, 341.55 K	0.039
in 2-butanone, 343.5 K	0.0411
in 2-butanone, 345.25 K	0.0432
in DMF, 289.45 K	0.0208
in DMF, 293.65 K	0.0228
in DMF, 300.83 K	0.0269
in DMF, 305.65 K	0.0301
in DMF, 308.85 K	0.0324
in DMF, 317.55 K	0.0398
in DMF, 320.45 K	0.0426
in DMF, 322.95 K	0.0452
in DMF, 325.25 K	0.0477
in DMF, 333.55 K	0.0582
in DMF, 337.65 K	0.0643
in DMF, 342.65 K	0.0722
in DMF, 346.65 K	0.0794
in DMF, 350.75 K	0.0876
in DMF, 353.35 K	0.0932
in DMF, 356.25 K	0.1
in DMSO, 289.35 K	0.0116
in DMSO, 293.65 K	0.0131
in DMSO, 297.05 K	0.0143
in DMSO, 301.45 K	0.0161
in DMSO, 305.95 K	0.0184
in DMSO, 309.45 K	0.0202
in DMSO, 314.05 K	0.0231
in DMSO, 318.15 K	0.026
in DMSO, 324.55 K	0.0314
in DMSO, 328.05 K	0.0348
in DMSO, 333.65 K	0.0406
in DMSO, 338.85 K	0.0473
in DMSO, 342.55 K	0.0527
in DMSO, 346.05 K	0.058
in DMSO, 349.35 K	0.0637
in DMSO, 355.95 K	0.0768
in cyclohexanone, 285.15 K	0.0129
in cyclohexanone, 291.25 K	0.0151
in cyclohexanone, 295.15 K	0.0167
in cyclohexanone, 300.15 K	0.0191
in cyclohexanone, 305.65 K	0.0221
in cyclohexanone, 311.65 K	0.0259
in cyclohexanone, 316.55 K	0.0295
in cyclohexanone, 321.85 K	0.0342
in cyclohexanone, 324.95 K	0.037
in cyclohexanone, 328.75 K	0.0411
in cyclohexanone, 333.25 K	0.0462
in cyclohexanone, 337.35 K	0.0515
in cyclohexanone, 341.35 K	0.0572
in cyclohexanone, 348.35 K	0.069
in cyclohexanone, 351.65 K	0.0751
in cyclohexanone, 355.05 K	0.0823
in toluene, 291.05 K	0.0031
in toluene, 296.35 K	0.0037
in toluene, 299.15 K	0.0041
in toluene, 302.95 K	0.0047
in toluene, 306.05 K	0.0053
in toluene, 310.15 K	0.0061
in toluene, 315.95 K	0.0075
in toluene, 321.05 K	0.0089
in toluene, 325.15 K	0.0103
in toluene, 330.65 K	0.0124
in toluene, 334.45 K	0.014
in toluene, 340.75 K	0.0175
in toluene, 343.55 K	0.0192
in toluene, 348.45 K	0.0226
in toluene, 350.65 K	0.0244
in toluene, 354.45 K	0.0276
